Read-outs that look alike come from different tables or passages of the source. Numbered stars: 1 amine (or outer) side, 2 acyl side, 3 side chain; on linkers, the order of the positions; unused ones are H or OH. Square brackets hold non-standard residues; d marks the D form. Side chains are listed from the residue outwards. Peptide text beside a SMILES is read from it. * marks the point of attachment. C20 diacid = O=C(O)CCCCCCCCCCCCCCCCCCC(=O)*; γGlu = O=C(O)[C@H](CCC(=O)[*:2])N[*:1]; αMeL = CC(C)C[C@](C)(N)C(=O)O; AEEA = NCCOCCOCC(=O)O; Aib = CC(C)(N)C(=O)O
Key:
human Gcg receptor = target: T1, human Gcg receptor (Homo sapiens, UniProt P47871); assay: [125I]-Glucagon binding (SPA), human Gcg receptor
T1 construct: expressed in transfected cells; crude membranes
How it was run: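 Cell pellets were lysed in hypotonic Tris buffer, pH 7.5, homogenized, and spun at low then high speed to give crude membranes. Ki was derived from the fitted IC50.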

human GIP receptor = target: T2, human GIP receptor (Homo sapiens, UniProt P48546); assay: [125I]-GIP binding (SPA), human GIP receptor
T2 construct: expressed in transfected cells; crude membranes
T2 sequence (P48546 22-466): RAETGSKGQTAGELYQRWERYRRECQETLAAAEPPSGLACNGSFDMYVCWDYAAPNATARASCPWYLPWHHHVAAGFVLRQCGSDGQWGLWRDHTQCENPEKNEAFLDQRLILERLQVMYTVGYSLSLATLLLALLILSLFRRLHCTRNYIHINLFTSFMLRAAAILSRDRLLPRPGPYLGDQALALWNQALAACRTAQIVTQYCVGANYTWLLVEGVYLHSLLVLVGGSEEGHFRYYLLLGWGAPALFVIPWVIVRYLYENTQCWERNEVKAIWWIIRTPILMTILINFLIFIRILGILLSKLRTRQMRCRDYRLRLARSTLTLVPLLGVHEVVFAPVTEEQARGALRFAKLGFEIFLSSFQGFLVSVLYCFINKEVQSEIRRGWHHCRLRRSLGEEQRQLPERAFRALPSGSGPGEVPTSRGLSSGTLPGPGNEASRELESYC

[1] = target: human GLP-1 receptor (GLP-1R) (Homo sapiens, UniProt P43220); assay: cAMP pharmacological functional assay in presence of casein, hGLP-1R; format: cell-based
[2] = target: T3, gastric inhibitory peptide receptor (GIPR) (Homo sapiens, UniProt P48546); assay: cAMP pharmacological functional assay in presence of casein, hGIPR; format: cell-based
T3 sequence (P48546 22-466): T2 sequence (P48546 22-466)

human GLP-1R [3] = target: T4, human GLP-1R (Homo sapiens, UniProt P43220); assay: [125I]-GLP-1 binding (SPA), human GLP-1 receptor; set-up: expressed in transfected cells; crude membranes
How it was run: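 Assay buffer: HEPES 25 mM, pH 7.4, CaCl2 2.5 mM, MgCl2 1 mM, with EDTA-free protease inhibitors. Receptor came from crude cell membranes prepared by homogenization and centrifugation at 4° C. IC50s came from four-parameter fits (maximum, minimum, IC50, Hill slope) and were expressed as Ki geometric means with SEM.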

human GLP-1R [4] = target: T4, human GLP-1R; assay: GLP-1R CHO cell β-arrestin recruitment assay; format: cell-based; set-up: host or cells: CHO-K1 PathHunter cells, assay-ready frozen; conditions: for hGLP1R B-Arrestin2 % Top: normalized to GLP-1 maximum control
How it was run: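 Peptide-induced β-arrestin-2 recruitment measured by enzyme-fragment complementation luminescence after 90 min at 37 °C plus 60 min detection at RT.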

human GLP-1R [5] = target: T4, human GLP-1R; assay: GLP-1R HEK293 cell membrane [35S]GTPγS binding assay; format: biochemical; set-up: expressed in transfected cells; host or cells: HEK293 cells expressing human GLP-1R; membranes
How it was run: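 Agonist-driven Gαs activation read as [35S]GTPγS ([…]) binding to receptor-expressing HEK293 membranes, 30 min at room temperature, pH 7.4. Detection by anti-Gαs immunocapture on scintillation beads; EC50 derived from four-parameter logistic concentration-response fit.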

[6] = read-out: hGLcgR Ki, nM (SEM, n)
[7] = read-out: hGIPR Ki, nM (SEM, n)
[8] = HEK293 cells expressing hGLP-1R, 0.1% Casein, geometric mean, read-out: hGLP1R cAMP Rel EC50 nM (SEM, n)
[9] = HEK293 cells expressing hGIPR, 0.1% Casein, geometric mean, read-out: hGIPR cAMP Rel EC50 nM (SEM, n)
[10] = read-out: hGLP1R Ki, (nM) (SEM, n)
[11] = CHO-K1 cells, PathHunter β-arrestin-2 recruitment, 0.1% casein, read-out: hGLP1R B-Arrestin2 Rel EC50 uM (SEM, n)
[12] = HEK293 cell membranes expressing human GLP-1R, [35S]GTPγS binding, read-out: hGLP1R GTPgS Rel EC50 nM (SEM, n)

T4 sequence (P43220 24-463): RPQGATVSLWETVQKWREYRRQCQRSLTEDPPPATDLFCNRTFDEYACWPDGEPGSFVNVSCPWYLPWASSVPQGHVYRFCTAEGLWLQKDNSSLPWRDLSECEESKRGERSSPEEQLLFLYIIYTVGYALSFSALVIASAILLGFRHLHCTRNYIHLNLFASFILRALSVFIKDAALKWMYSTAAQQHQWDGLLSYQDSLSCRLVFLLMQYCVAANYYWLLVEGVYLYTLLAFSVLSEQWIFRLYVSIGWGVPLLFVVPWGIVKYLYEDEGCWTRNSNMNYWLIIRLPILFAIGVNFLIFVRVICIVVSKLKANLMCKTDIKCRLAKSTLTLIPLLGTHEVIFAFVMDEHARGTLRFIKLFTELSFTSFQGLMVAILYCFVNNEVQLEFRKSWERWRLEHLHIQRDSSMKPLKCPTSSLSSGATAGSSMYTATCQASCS
Chain of human GLP-1 receptor (GLP-1R) (P43220 24-463): as above
T1 sequence (P47871 26-477): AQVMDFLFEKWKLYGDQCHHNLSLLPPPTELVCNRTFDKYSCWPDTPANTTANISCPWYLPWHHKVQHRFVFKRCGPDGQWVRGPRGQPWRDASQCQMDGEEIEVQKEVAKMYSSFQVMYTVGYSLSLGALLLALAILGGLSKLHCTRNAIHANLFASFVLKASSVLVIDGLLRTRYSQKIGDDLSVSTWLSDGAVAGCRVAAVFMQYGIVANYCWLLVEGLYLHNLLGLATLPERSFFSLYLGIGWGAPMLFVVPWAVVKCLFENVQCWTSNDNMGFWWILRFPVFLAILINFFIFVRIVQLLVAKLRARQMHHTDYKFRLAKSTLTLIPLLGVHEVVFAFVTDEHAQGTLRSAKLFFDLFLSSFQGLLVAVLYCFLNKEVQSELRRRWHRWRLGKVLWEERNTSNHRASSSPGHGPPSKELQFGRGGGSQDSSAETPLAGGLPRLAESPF

Row | Structure (SMILES) | Ki (human Gcg receptor; [6]) [nM] | Ki (human GIP receptor; [7]) [nM] | EC50 [1, 8] [nM] | EC50 [2, 9] [nM] | Ki (human GLP-1R [3]; [10]) [nM] | EC50 (human GLP-1R [4]; [11]) [µM] | hGLP1R B-Arrestin2 % Top (human GLP-1R [4]) [%] | EC50 (human GLP-1R [5]; [12]) [nM] | EC50 (human GLP-1R [4]; CHO-K1 cells, 0.1% w/v hydrolyzed Casein, read-out: hGLP1R B-Arrestin2 Rel EC50) [µM] | Ki (human Gcg receptor) [nM] | Ki (human GIP receptor) [nM] | EC50 [1] [nM] | EC50 [2] [nM] | Ki (human GLP-1R [3]) [nM] | EC50 (human GLP-1R [4]) [µM] | EC50 (human GLP-1R [5]) [nM]
1 | CC[C@H](C)[C@H](NC(=O)[C@H](CC(C)C)NC(=O)[C@H](Cc1ccc(O)cc1)NC(=O)[C@H](CCC(=O)O)NC(=O)[C@@H](NC(=O)[C@H](Cc1ccccc1)NC(=O)[C@H](C)NC(=O)C(C)(C)NC(=O)[C@H](CCC(N)=O)NC(=O)[C@H](C)NC(=O)[C@H](CCCCNC(=O)COCCOCCNC(=O)COCCOCCNC(=O)CC[C@H](NC(=O)CCCCCCCCCCCCCCCCCCC(=O)O)C(=O)O)NC(=O)[C@H](CCC(=O)O)NC(=O)[C@H](CC(=O)O)NC(=O)[C@H](CC(C)C)NC(=O)[C@](C)(CC(C)C)NC(=O)[C@@H](NC(=O)[C@H](CO)NC(=O)[C@H](Cc1ccc(O)cc1)NC(=O)[C@H](CC(=O)O)NC(=O)[C@H](CO)NC(=O)[C@@H](NC(=O)[C@H](Cc1ccccc1)NC(=O)[C@@H](NC(=O)CNC(=O)[C@H](CCC(=O)O)NC(=O)C(C)(C)NC(=O)[C@@H](N)Cc1ccc(O)cc1)[C@@H](C)O)[C@@H](C)O)[C@@H](C)CC)[C@@H](C)CC)C(=O)N[C@@H](C)C(=O)NCC(=O)NCC(=O)N1CCC[C@H]1C(=O)N[C@@H](CO)C(=O)N[C@@H](CO)C(=O)NCC(=O)N[C@@H](C)C(=O)N1CCC[C@H]1C(=O)N1CCC[C@H]1C(=O)N1CCC[C@H]1C(=O)N[C@@H](CO)C(N)=O [Example 332] (H-Y[Aib]EGTFTSDYSI[αMeL]LDEK([AEEA-AEEA-γGlu-C20 diacid])AQ[Aib]AFIEYLIAGGPSSGAPPPS-NH2) | 397 | 0.0497 | 0.184 | 0.0745 | 7.87 | 0.0171 | 45.6 | 0.453 |  |  |  |  |  |  |  | 
2 | CC[C@H](C)[C@H](NC(=O)[C@H](CC(C)C)NC(=O)[C@H](Cc1ccc(O)cc1)NC(=O)[C@H](CCC(=O)O)NC(=O)[C@@H](NC(=O)[C@H](Cc1ccccc1)NC(=O)[C@H](CCC(=O)O)NC(=O)C(C)(C)NC(=O)[C@H](CCC(N)=O)NC(=O)[C@H](C)NC(=O)[C@H](CCCCNC(=O)COCCOCCNC(=O)COCCOCCNC(=O)CC[C@H](NC(=O)CCCCCCCCCCCCCCCCCCC(=O)O)C(=O)O)NC(=O)[C@H](CCCCN)NC(=O)[C@H](CC(=O)O)NC(=O)[C@H](CC(C)C)NC(=O)[C@](C)(CC(C)C)NC(=O)[C@@H](NC(=O)[C@H](CO)NC(=O)[C@H](Cc1ccc(O)cc1)NC(=O)[C@H](CC(=O)O)NC(=O)[C@H](CO)NC(=O)[C@@H](NC(=O)[C@H](Cc1ccccc1)NC(=O)[C@@H](NC(=O)CNC(=O)[C@H](CCC(=O)O)NC(=O)C(C)(C)NC(=O)[C@@H](N)Cc1ccc(O)cc1)[C@@H](C)O)[C@@H](C)O)[C@@H](C)CC)[C@@H](C)CC)C(=O)N[C@@H](CCC(=O)O)C(=O)NCC(=O)NCC(=O)N1CCC[C@H]1C(=O)N[C@@H](CO)C(=O)N[C@@H](CO)C(=O)NCC(=O)N[C@@H](C)C(=O)N1CCC[C@H]1C(=O)N1CCC[C@H]1C(=O)N1CCC[C@H]1C(=O)N[C@@H](CO)C(N)=O [Example 333] (H-Y[Aib]EGTFTSDYSI[αMeL]LDKK([AEEA-AEEA-γGlu-C20 diacid])AQ[Aib]EFIEYLIEGGPSSGAPPPS-NH2) | 578 | 0.0634 | 0.131 | 0.0492 | 4.25 | 0.0548 | 58.2 | 0.442 |  |  |  |  |  |  |  | 
3 | CC[C@H](C)[C@H](NC(=O)[C@H](CC(C)C)NC(=O)[C@H](Cc1ccc(O)cc1)NC(=O)[C@H](CCC(=O)O)NC(=O)[C@@H](NC(=O)[C@H](Cc1ccccc1)NC(=O)[C@H](C)NC(=O)C(C)(C)NC(=O)[C@H](CCC(N)=O)NC(=O)[C@H](C)NC(=O)[C@H](CCCCNC(=O)COCCOCCNC(=O)COCCOCCNC(=O)CC[C@H](NC(=O)CCCCCCCCCCCCCCCCCCC(=O)O)C(=O)O)NC(=O)[C@H](CCCCN)NC(=O)[C@H](CC(=O)O)NC(=O)[C@H](CC(C)C)NC(=O)[C@](C)(CC(C)C)NC(=O)[C@@H](NC(=O)[C@H](CO)NC(=O)[C@H](Cc1ccc(O)cc1)NC(=O)[C@H](CC(=O)O)NC(=O)[C@H](CO)NC(=O)[C@@H](NC(=O)[C@H](Cc1ccccc1)NC(=O)[C@@H](NC(=O)CNC(=O)[C@H](CCC(=O)O)NC(=O)C(C)(C)NC(=O)[C@H](N)Cc1ccc(O)cc1)[C@@H](C)O)[C@@H](C)O)[C@@H](C)CC)[C@@H](C)CC)C(=O)N[C@@H](CCC(=O)O)C(=O)NCC(=O)NCC(=O)N1CCC[C@H]1C(=O)N[C@@H](CO)C(=O)N[C@@H](CO)C(=O)NCC(=O)N[C@@H](C)C(=O)N1CCC[C@H]1C(=O)N1CCC[C@H]1C(=O)N1CCC[C@H]1C(=O)N[C@@H](CO)C(N)=O [Example 334] | 192 | 0.0646 | 0.303 | 0.0718 | 2.17 | > 10.3 |  | 0.432 | > 10.3 |  |  |  |  |  |  | 
4 | CC[C@H](C)[C@H](NC(=O)[C@H](CC(C)C)NC(=O)[C@H](Cc1ccc(O)cc1)NC(=O)[C@H](CCC(=O)O)NC(=O)[C@@H](NC(=O)[C@H](Cc1ccccc1)NC(=O)[C@H](C)NC(=O)C(C)(C)NC(=O)[C@H](CCC(N)=O)NC(=O)[C@H](C)NC(=O)[C@H](CCCCNC(=O)COCCOCCNC(=O)COCCOCCNC(=O)CC[C@H](NC(=O)CCCCCCCCCCCCCCCCCCC(=O)O)C(=O)O)NC(=O)[C@H](CCCCN)NC(=O)[C@H](CC(=O)O)NC(=O)[C@H](CC(C)C)NC(=O)[C@](C)(CC(C)C)NC(=O)[C@@H](NC(=O)[C@H](CO)NC(=O)[C@H](Cc1ccc(O)cc1)NC(=O)[C@H](CC(=O)O)NC(=O)[C@H](CO)NC(=O)[C@@H](NC(=O)[C@](C)(Cc1ccccc1)NC(=O)[C@@H](NC(=O)CNC(=O)[C@H](CCC(=O)O)NC(=O)C(C)(C)NC(=O)[C@H](N)Cc1ccc(O)cc1)[C@@H](C)O)[C@@H](C)O)[C@@H](C)CC)[C@@H](C)CC)C(=O)N[C@@H](CCC(=O)O)C(=O)NCC(=O)NCC(=O)N1CCC[C@H]1C(=O)N[C@@H](CO)C(=O)N[C@@H](CO)C(=O)NCC(=O)N[C@@H](C)C(=O)N1CCC[C@H]1C(=O)N1CCC[C@H]1C(=O)N1CCC[C@H]1C(=O)N[C@@H](CO)C(N)=O [Example 335] |  |  |  |  |  |  | 73 |  |  | 27.1 | 0.0444 | 0.122 | 0.0477 | 2.54 | 0.00531 | 0.285
5 | CC[C@H](C)[C@H](NC(=O)[C@H](CC(C)C)NC(=O)[C@H](Cc1ccc(O)cc1)NC(=O)[C@H](CCC(=O)O)NC(=O)[C@@H](NC(=O)[C@H](Cc1ccccc1)NC(=O)[C@H](C)NC(=O)C(C)(C)NC(=O)[C@H](CCC(N)=O)NC(=O)[C@H](C)NC(=O)[C@H](CCCCNC(=O)COCCOCCNC(=O)COCCOCCNC(=O)CC[C@H](NC(=O)CCCCCCCCCCCCCCCCCCC(=O)O)C(=O)O)NC(=O)[C@H](CCCCN)NC(=O)[C@H](CC(=O)O)NC(=O)[C@H](CC(C)C)NC(=O)[C@](C)(CC(C)C)NC(=O)[C@@H](NC(=O)[C@H](CO)NC(=O)[C@H](Cc1ccc(O)cc1)NC(=O)[C@H](CC(=O)O)NC(=O)[C@H](CO)NC(=O)[C@@H](NC(=O)[C@](C)(Cc1ccccc1F)NC(=O)[C@@H](NC(=O)CNC(=O)[C@H](CCC(=O)O)NC(=O)C(C)(C)NC(=O)[C@H](N)Cc1ccc(O)cc1)[C@@H](C)O)[C@@H](C)O)[C@@H](C)CC)[C@@H](C)CC)C(=O)N[C@@H](CCC(=O)O)C(=O)NCC(=O)NCC(=O)N1CCC[C@H]1C(=O)N[C@@H](CO)C(=O)N[C@@H](CO)C(=O)NCC(=O)N[C@@H](C)C(=O)N1CCC[C@H]1C(=O)N1CCC[C@H]1C(=O)N1CCC[C@H]1C(=O)N[C@@H](CO)C(N)=O [Example 336] |  |  |  |  |  |  | 82.5 |  |  | 17.1 | 0.0277 | 0.0874 | 0.0312 | 2.44 | 0.00778 | 0.377

Reference: patent US12252524B2, “GIP/GLP1 co-agonist compounds” (Eli Lilly and Company, priority 2018, dated 2025)
